Data taken from patent US20050042283A1, “Histamine and CCK2/gastrin receptor blockade in the treatment of acid-peptic disease and cancer” (UNIVERSITY OF MASSACHUSETTS, priority 2003, published 2005).
Entries after “also recorded” stand apart in the source; their conditions may differ.

Experiments:
IL-4 = assay: Real-time RT-PCR of cytokine expression: IL-4; format: in vivo; conditions: 6 months; versus untreated mice; listed as loxtidine alone
Procedure: (§1) Real-time RT-PCR assay of growth factors and cytokine expression profiles Total RNAs were extracted from a sample of whole stomach from each animal with Trizol (Invitrogen, Calif.) and five micrograms of total RNA were used for first strand cDNA synthesis using Superscript II cDNA amplification System (Invitrogen, Calif.) following manufacturer's instructions. Real-time PCR was performed as above using RT-PCR primers for each gene as listed below. All primers were designed using Lasergene ver5.0 software (DNASTAR inc., Madison, Wis.). Results were calculated by minus delta delta threshold cycle (-ΔΔCt) method (Livak, K. J. et al., 2001). Briefly, the threshold cycle Ct1 of each sample reaction was deducted from the threshold cycle Ct2 of GAPDH reaction for normalization, and then deducted from the threshold cycle Ct3 of calibration control (45 cycles in this experiment), i.e., the final result was represented by the formula; Ct3-(Ct1-Ct2). […]

[1] = test system: enterochromaffin-like (ECL) cell; assay: Gastric histology of loxtidine-treated South African rat; format: in vivo, Mastomys (African multimammate rat); conditions: treated for 16 weeks
From the text: FIG. 2: Characteristics of loxtidine.

Reg I = assay: Real-time RT-PCR of growth factor expression: Reg I; format: in vivo; conditions: quantitative real-time PCR; versus non drug treated mice
Procedure: as §1

[2] = test system: COOH-terminally amidated gastrin; assay: Gastrin radioimmunoassay (serum amidated gastrin); format: in vivo, mice; conditions: 6 months treatment
Procedure: Plasma gastrin levels (COOH-terminally amidated gastrin) were determined by radioimmunoassay using rabbit antiserum L2 that reacts similarly with G17 and […]. Real-time PCR Assay of Helicobacter felis infection in mouse stomachs and RT-PCR assay of growth factors and cytokine expression profiles H.felis DNA present in infected mouse stomachs was quantified using a modification of a previously described realtime PCR assay that accurately quantified H. pylori (Ge, Z. et al., 2001). Two primers (forward: 5′-[…] -3′ (SEQ ID NO:1); reverse: 5′-[…]-3′(SEQ ID NO:2) were designed to hybridize within the conserved region of the single copy H. felis flaB gene locus. No products were amplified from DNA isolated from H. pylori, H. mustelae, or H. bizzozeroni, confirming the specificity of these oligonucleotides for H. felis. DNA from plate-grown H. felis and from mouse gastric corpus was prepared using a high pure PCR kit (Roche Molecular Biochemicals, Indianapolis, IN). Real-time PCR was performed using SmartCycler (Cepheid, Calif.) and Quantitect SYBR Green PCR kit (QIAGEN Inc., Valencia, Calif.) following the manufacturer's instructions. Briefly, the PCR assay was performed under the following conditions: 95° C. for 15 minutes followed by 45 cycles of 95° C. for 15 seconds, 55° C. for 30 seconds and 72° C. for 30 seconds. […]

Substance: 1-methyl-5-((3-(3-(1-piperidinylmethyl)phenoxy)propyl)amino)-1H-1,2,4-triazole-3-ethanol [Loxtidine]
- IL-4 expression level (IL-4): large and significant increase; also recorded: significantly higher level
- Gastric histology finding [1]: enterochromaffin-like (ECL) cell neoplasia
- Reg I expression level (Reg I): markedly reduced
- Serum amidated gastrin levels compared with untreated mice [2]: no significant, but in a higher tendency
- Serum amidated gastrin levels compared with untreated mice ([2]; listed as loxtidine alone): tendency toward higher gastrins that was not significant
